In experiment [1] the test system is human corpus cavernosum tissue. Kind of experiment: Concentration response relaxation studies of human corpus cavernosum tissue strips contracted with phenylephrine. In kind it is cell-based. As to conditions: compound alone, strips contracted with 0.5 μM phenylephrine, relaxation as % of 0.1 mM papaverine, n=5, read-out: EC50 (concentration required to obtain the half-maximum response) for relaxation. As to the method:
Human corpus cavernosum specimens were obtained from impotent men at the time of penile prosthesis insertion. Tissues were maintained at 4-6° C. in M-400 solution (composition per 100 ml: mannitol, 4.19 g; KH2PO4, 0.205 g; K2HPO4.3H2O, 0.97 g; KCl, 0.112 g; NaHCO3, 0.084 g) until used. Corpus cavernosum tissues were typically used between 2 and 16 hours from extraction.
Concentration response relaxation studies of human corpus cavernosum tissues were conducted as follows. Corpus cavernosal tissue strips (3×3×7 mm), obtained as described in Example 2, were immersed in a 8 ml organ chamber containing physiological salt solution, maintained at 37° C. and aerated with 5% CO2/95% air, pH 7.4. Each strip was incrementally stretched to optimal isometric tension, as determined by maximal contractile responses to 1 μM phenylephrine. Relaxant responses were evaluated by adding increasing cumulative concentrations of compounds to the strips contracted with 0.5 μM phenylephrine. Relaxation responses were expressed as a percentage of total relaxation induced by the addition of 0.1 mM papaverine hydrochloride (total loss of tone) at the end of the experiment. In FIGS. 2 and 3, the data are expressed as mean±standard error. Statistical analysis were conducted using a two-factor ANOVA statistical analysis using StatView software for Apple computers.
The tissues were prepared according to Example 4. […]

The subject of experiment [2] is human corpus cavernosum tissue. Kind of experiment: Measurement of cGMP in human corpus cavernosum tissues (ELISA). In kind it is cell-based. Conditions: 5 min incubation after 30 μM Zaprinast and 100 μM IBMX, n=5. As to the method: Human corpus cavernosum specimens were obtained from impotent men at the time of penile prosthesis insertion. Tissues were maintained at 4-6° C. in M-400 solution (composition per 100 ml: mannitol, 4.19 g; KH2PO4, 0.205 g; K2HPO4.3H2O, 0.97 g; KCl, 0.112 g; NaHCO3, 0.084 g) until used. Corpus cavernosum tissues were typically used between 2 and 16 hours from extraction. Measurement of cyclic GMP in corpus cavernosal tissues was carried out as follows. Corpus cavernosal tissue strips (3×3×7 mm) were immersed in a 8 ml organ chamber containing physiological salt solution, maintained at 37° C. and aerated with 5% CO2/95% air, pH 7.4. […] Tissues were incubated for another 5 minutes then immediately frozen in liquid nitrogen and stored at -80° C. until extraction for cyclic nucleotide assay. Tissues were extracted by homogenization in 6% trichloroacetic acid followed by ether (H2O-saturated) extraction and lyophilization. cGMP levels were determined by ELISA using a kit from Cayman Chemical (Ann Arbor, Mich.). Protein concentration in the corpus cavernosum tissue was determined using the Bio-Rad Protein Assay Kit microtiter plate assay procedure (Bio-Rad, Hercules, Calif.) with bovine serum albumin as the standard. The measured concentrations of cGMP in picomoles were normalized based on milligrams of protein to provide a valid comparison between each tissue sample. […]
For orientation: ELISA stands for enzyme-linked immunosorbent assay.

Take `CCCCC[C@H](O)/C=C/[C@H]1[C@H](O)CC(=O)[C@@H]1CCCCCCC(=O)O` [PGE1, 7-(5-((1E)(3S)-3-hydroxyoct-1-enyl)(1R,4R,5R)-4-(hydroxy-2-oxocyclopentyl)heptanoic acid)]: in experiment [1], the EC50 amounted to 0.083 ± 0.05 µM. The “cGMP production compared to control” value in experiment [2] (1 μM PGE1 alone) is on record as “did not produce a significant amount of cGMP”.

Turning to `N[C@@H](CCC(=O)N[C@@H](CSN=O)C(=O)NCC(=O)O)C(=O)O` [GS-NO, N-(N-L-γ-glutamyl-S-Nitroso-L-cysteinyl)glycine], the EC50 in experiment [1] is 2.56 ± 1.3 µM. Also, the “cGMP production compared to control” value in experiment [2] (100 μM GS-NO alone) is given as “increased amounts of cGMP”.

The values above are taken from patent US7449595B2, “Nitrosated and nitrosylated prostaglandins, compositions and methods of use” (NitroMed, Inc., priority 1999, dated 2008).
